Results: patent US20020022022A1, “Inhibition of cell proliferation and matrix synthesis by antioxidants and NAD(P)H oxidase inhibitors” (priority 2000, published 2002)
“Also recorded” adds a separate entry of the source. Where two headings read alike, the source gives them in different places.

B1: CAT: catalase; removal of H2O2 (protein, UniProt P00432 2-527, looked up)
Catalase: ADNRDPASDQMKHWKEQRAAQKPDVLTTGGGNPVGDKLNSLTVGPRGPLLVQDVVFTDEMAHFDRERIPERVVHAKGAGAFGYFEVTHDITRYSKAKVFEHIGKRTPIAVRFSTVAGESGSADTVRDPRGFAVKFYTEDGNWDLVGNNTPIFFIRDALLFPSFIHSQKRNPQTHLKDPDMVWDFWSLRPESLHQVSFLFSDRGIPDGHRHMNGYGSHTFKLVNANGEAVYCKFHYKTDQGIKNLSVEDAARLAHEDPDYGLRDLFNAIATGNYPSWTLYIQVMTFSEAEIFPFNPFDLTKVWPHGDYPLIPVGKLVLNRNPVNYFAEVEQLAFDPSNMPPGIEPSPDKMLQGRLFAYPDTHRHRLGPNYLQIPVNCPYRARVANYQRDGPMCMMDNQGGAPNYYPNSFSAPEHQPSALEHRTHFSGDVQRFNSANDDNVTQVRTFYLKVLNEEQRKRLCENIAGHLKDAQLFIQKKAVKNFSDVHPEYGSRIQALLDKYNEEKPKNAVHTYVQHGSHLSAREKANL

How the values were obtained:
[1] = test system: superoxide anion (—O2^−) generation in coronary adventitia; assay: —O2^− production in uninjured coronary adventitia (SOD-inhibitable NBT reduction); assay type: cell-based, pigs; conditions: uninjured coronary rings pre-incubated with inhibitor; DPI 100 μM, ROT 50 μM, OXY 300 μM
Procedure: The production of —O2^− is measured by superoxide dismutase- (SOD) or tiron-inhibitable conversion of nitroblue tetrazolium (NBT) to formazan. (20,21)
—O2^− production in coronary arteries: Coronary arteries are dissected free from adipose tissue and myocardium and then cut into ˜5 mm rings and placed in 24-well plates. Tissues are balanced in phenol-free DMEM at 37° C. in a CO2 incubator for 30 minutes with or without addition of SOD (SOD, 1000 unit/ml) or tiron (10 mM), both scavengers of —O2^− Freshly made NBT (100 mg/L in phenol-free DMEM) is added to the tissues with a gentle rocking for 3 hours. The reaction is terminated by addition of equal volume of 0.5N HCl, and tissues are rinsed twice with cold PBS. To extract formazan, tissues are pulverized in liquid nitrogen and dissolved in 100% pyridine at 80° C. for 30 minutes. After centrifugation, light absorbance is read in supernatants at 540 nm. The NBT reduction to formazan is calculated using the following formula: NBT reduction=A×V/(T×E×L) (A: absorbance; V: volume of solubilizing solution; T: time of incubation with NBT (minutes); E: extinction coefficient=0.72 mmol.mm; L: length of light travel through the solution, 10 mm). Either SOD- or tiron-inhibitable NBT reduction is calculated as measures of —O2^− production (pmol/min/mg wet weight). To determine the pathways mediating —O2^− production, several inhibitors are used in the experiments, including diphenyleneiodonium (DPI, 100 μM), rotenone (ROT, 50 μM), oxypurinol (OXY, 300 μM), N^ω-nitro-L-arginine methyl ester (L-NAME, 1 mM), and diethyldithio-carbamic acid (DETCA, 10 mM). The n value represents the number of vascular rings obtained from at least 3 animals per experimental condition.

[2] = test system: superoxide generation in injured coronary arteries; assay: Superoxide generation in injured coronary arteries (SOD-inhibitable NBT reduction); assay type: cell-based, pigs; conditions: for Superoxide generation (SOD-inhibitable NBT reduction): rings pretreated 30 minutes, DPI 100 μM or L-NAME 1 mM; for effect on superoxide generation after coronary injury: injured coronary arteries, DPI 100 μM, L-NAME 1 mM
Excerpt: Domestic crossbred female pigs (12-15 kg) are anesthetized and instrumented, as previously described. (22,23) After the exposure of the right common carotid artery, heparin (5,000 U) is intravenously administered. […] The third artery is used as a control. The animals are euthanatized with intravenous […] Laboratory) at the times indicated in the text. […] Coronary arteries are dissected free from adipose tissue and myocardium and then cut into 5 mm rings and placed in 24-well plates. […] The reaction is terminated by addition of equal volume of 0.5N HCl, and tissues are rinsed twice with cold PBS. To extract formazan, tissues are pulverized in liquid nitrogen and dissolved in 100% pyridine at 80° C. for 30 minutes. After centrifugation, light absorbance is read in supernatants at 540 nm. The NBT reduction to formazan is calculated using the following formula: NBT reduction=[…]: absorbance; V: volume of solubilizing solution; T: time of incubation with NBT (minutes); […] L: length of light travel through the solution, 10 mm).

[3] = test system: —O2^− generation in coronary adventitial fibroblasts; assay: Serum-induced —O2^− generation in coronary adventitial fibroblasts (NBT to formazan); assay type: cell-based, porcine
Procedure: —O2^− production in isolated adventitial fibroblasts: Adventitial fibroblasts (passage 2-6) are plated in 6-well plates at 100,000 cells/well in 10% FBS. Two (2) days later, when cells are ˜80% confluent, they are arrested in 0.5% FBS for the next 48 hours. Afterwards, they are stimulated with 10% FBS for 1-24 hours, followed by incubation with NBT (0.5 mg/ml in phenol-free DMEM) for one hour. After a brief washing, cells are trypsinized, and cell pellets are dissolved in 100% pyridine. The light absorbance is measured at 540 nm, and the NBT reduction to formazan is calculated as described above and corrected by cell number. Values are derived from 6-9 wells from three separate experiments.

adventitial fibroblasts = assay: Cell proliferation assay, serum-stimulated adventitial fibroblasts (cell counting); assay type: cell-based, porcine; conditions: for effect on fibroblast growth (cell counting): 10% FBS, 3 days after treatment, concentration-dependent; for effect on serum-induced growth of vascular cells in vitro: serum-stimulated isolated vascular cells (fibroblasts and SMC, FIGS. 7A and 7B)
Procedure: (§1) Fibroblasts are isolated from the adventitia of porcine coronary arteries as described. (26) The cells (passage 2-6) are plated in triplicates at 10,000 cells/well in 24-well plates in DMEM supplemented with 10% FBS. At 24 hours later, cells are arrested in DMEM containing 0.5% FBS for 48 hours. Afterwards, they are stimulated with 10% FBS for 3 days with or without addition of indicated inhibitors. Cells are trypsinized at 72 hours after stimulation and counted in a Coulter counter. Values are derived from 3 wells/treatment and the experiments are repeated at least three times on separate occasions.

vascular SMC = assay: Vascular SMC proliferation, serum-stimulated (cell counting); assay type: cell-based; conditions: 10% FBS, 3 days after treatment; concentration-dependent
Procedure: FIG. 7B. ROS and vascular SMC proliferation. SMC (10,000 cells/well) are arrested with 0.5% FBS for 48 hours and then stimulated with 10% FBS in the presence or absence of various inhibitors. Cell growth is examined at 3 days after treatment by cell counting. […] The experiments are repeated 3 times yielding similar results.
as §1

[4] = test system: superoxide anion (—O2^−) in SVG; assay: Superoxide anion in saphenous vein grafts (SOD-inhibitable NBT reduction); assay type: cell-based, pigs; conditions: SVG 2 weeks after surgery, DPI 100 μM; for effect on superoxide anion in SVG (SOD-inhibitable NBT reduction): L-NAME 1 mM
Procedure: A porcine model of a graft interposition in the common carotid artery is used as described. (49) Domestic crossbred pigs (n=22) weighing 35-50 kg are sedated with Telazol (3-5 mg/kg) and atropine (0.01 mg/kg) i.m. Anesthesia is maintained with Propofol, i.v. (15 mg/kg/hr). The animals are ventilated with 100% oxygen. Saphenous veins are harvested without distension and incubated for 30 minutes in saline containing nitroglycerine (0.5 mg/ml). Both carotid arteries are dissected free and heparin (150 U/kg) is administered i.v. A ˜2 cm section of the carotid artery is excised and reversed vein interposition grafting is performed. The excised carotid artery then is grafted into the contralateral carotid artery. Postoperative analgesia is provided with Buprenex (0.015 mg/kg) i.m. The animals are given aspirin 650 mg/day p.o. At the times indicated, animals are euthanized with Euthasol (80 mg/kg) i.v. and vascular tissues harvested.
Superoxide anion (—O2^−) production is measured by SOD-inhibitable conversion of NTB to formazan. (20,21) Normal saphenous veins, arteries, SVG, and AG are harvested at 2 weeks after surgery. After the removal of adventitia and endothelium, tissues are cut into ˜5 mm strips, placed in a 24-well plate, and balanced in pheno-free DMEM at 37° C. in CO2 for 30 minutes. Freshly made NBT (0.1 mg/ml in pheno-free DMEM) is added for 3 hours with or without addition of SOD (1000 U/ml). The reaction is terminated by 0.5N HCl and rinsing twice with cold PBS. To extract formazan, tissues are pulverized in liquid nitrogen, dissolved in 100% pyridine at 80° C. for 30 minutes, and centrifuged. Supernatants are read at 540 nm and NBT reduction is calculated as follows: NBT reduction=A×V/(T×E×L) (A: absorbance; V: volume of solubilizing solution; T: time of incubation with NBT (minutes); E: extinction coefficient=0.72 mmol.mm; L: length of light travel through the solution (10 mm).) The SOD-inhibitable NBT reduction is calculated as a measure of —O2^− (pmol/mg wet weight/min). In separate experiments, the inhibitors of oxidative enzymes are used, inlcuding diphenyleneiodonium (DPI, 100 μM) rotenone (ROT, 50 μμM), oxypurinol (OXY, 300 μμM) and N^ω-nitro-L-arginine methyl ester (L-NAME, 1 mM), to determine the origin of —O2^− in vascular grafts.

[5] = pretreated 30 minutes, 10% FBS for 3 hours, DPI 10 μM, SOD 500 U/ml

Molecule	effect on —O2^− generation in coronary adventitia (SOD-inhibitable NBT reduction) [1]	effect on fibroblast growth (cell counting) (adventitial fibroblasts)	effect on serum-induced growth of vascular cells in vitro (adventitial fibroblasts)	effect on SMC growth (cell counting) (vascular SMC)	effect on superoxide anion in SVG (SOD-inhibitable NBT reduction) [4]	effect on serum-induced —O2^− production [3, 5]	also measured
c1ccc2c(c1)[I+]c1ccccc1-2 [DPI, diphenyleneiodonium]	inhibits; also recorded: abolishes	significantly inhibits	significantly inhibits; also recorded: abrogates	significantly inhibits	significantly reduced		Superoxide generation (SOD-inhibitable NBT reduction) ([2]; 2 days after injury): 0.5 ± 0.9 pmol/mg/min; Superoxide generation (SOD-inhibitable NBT reduction) ([2]; 10 days after injury): 0.2 ± 0.3 pmol/mg/min; effect on superoxide generation after coronary injury [2]: almost entirely abolishes; effect on serum-induced —O2^− production [3]: significant inhibition; also recorded: significant reduction; reduction of —O2^− in SVG [4]: > 95%
COC(=O)[C@@H](N)CCCNC(=N)N[N+](=O)[O-] [L-NAME, N^ω-nitro-L-arginine methyl ester]			no significant effects		no effects; also recorded: do not decrease	no effects	Superoxide generation (SOD-inhibitable NBT reduction) ([2]; 2 days after injury): 12.9 ± 9.4 pmol/mg/min; Superoxide generation (SOD-inhibitable NBT reduction) ([2]; 10 days after injury): 11.5 ± 6.1 pmol/mg/min; effect on superoxide generation after coronary injury [2]: shows no effect
CC(=O)N[C@@H](CS)C(=O)O [NAC, N-acetylcysteine]				significantly inhibits			
O=c1[nH]c(=O)c2c[nH]nc2[nH]1 [OXY, oxypurinol]	no inhibitory effects; also recorded: no effect		no significant effects		do not decrease	no effects	effect on superoxide anion in SVG (SOD-inhibitable NBT reduction) ([4]; listed as oxypurinol): no effects
C=C(C)[C@H]1Cc2c(ccc3c2O[C@@H]2COc4cc(OC)c(OC)cc4[C@@H]2C3=O)O1 [ROT, rotenone]	no inhibitory effects; also recorded: no effect				do not decrease	no effects	effect on superoxide anion in SVG (SOD-inhibitable NBT reduction) ([4]; listed as rotenone): no effects
COc1cc(C(C)=O)ccc1O [apocynin, 4-hydroxy-3-methoxyacetopoenone]				significantly inhibits			
O=S(=O)(O)c1cc(O)c(O)c(S(=O)(=O)O)c1 [tiron]		significantly inhibits	inhibits; also recorded: abrogates	significantly inhibits			
SOD: superoxide dismutase, exogenous enzyme; dismutation of —O2^− to H2O2		no significant inhibition	does not prevent; also recorded: ineffective	no significant inhibition		significant inhibition; also recorded: significant reduction	
B1		significantly inhibits	inhibits; also recorded: abrogates	significantly inhibits			
